*: point of attachment. NHNH2 = NN*
Columns and labels:
Assay type in all cases: cell-based
Hela cells = test: RLuc pDNA delivery, robotic library screening, HeLa
ARPE19 cells = test: EGFP mRNA delivery, robotic library screening, ARPE19
Description: Cells were seeded in a 96 well plate the day before the experiment at a concentration of 50,000 cell/mL (100 μL/w) in DMEM+10% FBS+1% Gln-Abt. For robotic library screening, the delivery of EGFP-mRNA (from TriLink, fully substituted with 5-methoxyuridine, capped and polyadenylated; TriLink, CleanCap® EGFP mRNA (5moU), ref. L-7201) in six different cell lines was performed. Amphiphilic molecule stock solutions were prepared in DMSO as described above and diluted in DMEM to afford a range of concentrations. The solutions of EGFP-mRNA/amphiphilic molecule complexes were freshly prepared prior to the transfection experiments. 35 μL of the corresponding amphiphile were added to 10 μL of a solution of EGFP-mRNA at 10 ng/μL in DMEM. The mixture was shaken for 30 min at room temperature before the addition to the cells. The cell medium was aspirated, and cells were washed with PBS twice. Cells were covered with 39 μL of DMEM and 11 μL of the complex's solution were added to the cells and incubated for 4 h (final concentration of peptide=2.5, 5 and 10 μM; final concentration of EGFP-mRNA=25 ng/well). After the incubation, the medium was replaced by 100 μL of fresh DMEM supplemented with 10% FBS. The total EGFP fluorescence was quantified after 72 h in a well plate reader. Amphiphile transfection efficiency was compared and normalized to Lipofectamine® MessengerMax efficiency (value of 1 in Tables 1-5 and 7; double underlined numbers). All experiments were done in triplicate.
Tables 1-7: RLuc (pDNA) or EGFP (mRNA) expression levels were normalized to Lipofectamine reagents (value=1) and expressed as fold-times signal increase. In the case of siRNA, the siRNA treated cells fluorescence was compared with siMOCK control fluorescence, while Cas9-RNP mediated knockout was measured against the fluorescence of untreated cells. In both siRNA and Cas9-RNP, values are expressed as % fluorescence reduction. Amphiphile concentration was 5 μM in all cases. All experiments were performed in triplicate.
Tables 14-19 show the mean (triplicates) fluorescence intensity measured after the transfection of EGFP mRNA by different amphiphiles at different concentrations in a variety of cell lines. Background fluorescence values, accounted by untreated control cells, were subtracted for processing.

[1] = system: HCT116 cells expressing EGFP; test: Cas9-RNP delivery against EGFP (gene editing, plate reader), HCT116
Description: To generate an EGFP expressing HeLa cell line, HeLa cells were transfected with EGFP pDNA (pEGFP-C1, Clontech) and stable transfectants were selected with 400 μg/mL of G-418 (Millipore). Green clones were selected by epifluorescence microscopy and tested for EGFP expression stability through several passages. […] All other EGFP-expressing cell lines were obtained in a similar way from parent non-EGFP-expressing cell lines.
Cells expressing EGFP were seeded in a 96 well plate the day before the experiment at a concentration of 50,000 cell/mL (100 μL/w) in DMEM+10% FBS+1% Gln-Abt. For robotic library screening, the delivery of Cas9-RNP against EGFP (RNP designed to knock-out the gene encoding for the enhanced green fluorescent protein (EGFP)) was performed. For RNP assembly, 9.2 μL of crRNA and 9.2 μL of tracrRNA were mixed in 211.6 μL of Nuclease-Free Duplex Buffer (IDT), incubated for 5 min at 95° C. and slowly cooled at rt (see I. Lostalé-Seijo, et al. Peptide/Cas9 nanostructures for ribonucleoprotein cell membrane transport and gene edition, Chem. Sci., 2017). Cas9 protein was dissolved in DMEM at a final concentration of 4 μM and equal volumes of the RNA complex and Cas9 were mixed and incubated for 5 min at rt. 75 μL of the corresponding amphiphile concentrations were added to 5 μL of RNP at 2 μM. The mixture was shaken for 30 min at room temperature before the addition to the cells. The cell medium was aspirated, and cells were washed twice with PBS. Cells were covered with 30 μL of DMEM and 20 μL of the RNP/amphiphile complexes were added to the cells (final peptide concentrations=2.5, 5 and 10 μM; final Cas9-RNP concentration=50 nM) and incubated for 4 h. After the incubation, the medium was replaced by 100 μL of fresh DMEM supplemented with 10% FBS. The total EGFP fluorescence was quantified after 72 h in a plate reader (FIG. 2, Table 1 (right) and Table 6). All experiments were done in triplicate. […]
Tables 26-31 show the mean (triplicates) percentage of gene editing, accounted by GFP fluorescence intensity decrease (% of reduction), measured after the transfection of Cas9-RNP by different amphiphiles at different concentrations in a variety of cell lines. Background values, accounted by untreated control cells, were subtracted for processing.

| Substance | mean luminescent intensity (RLuc pDNA) (Hela cells; Hela, Myristoleyl, 5 μM) [RLU] | mean luminescent intensity (RLuc pDNA) (Hela cells; Hela, Myristoleyl, 10 μM) [RLU] | mean luminescent intensity (RLuc pDNA) (Hela cells; Hela, Myristoleyl, 15 μM) [RLU] | mean luminescent intensity (RLuc pDNA) (Hela cells; Hela, Palmitoleyl, 5 μM) [RLU] | mean luminescent intensity (RLuc pDNA) (Hela cells; Hela, Palmitoleyl, 10 μM) [RLU] | mean luminescent intensity (RLuc pDNA) (Hela cells; Hela, Petroselinyl, 5 μM) [RLU] | mean fluorescence intensity (EGFP mRNA) (ARPE19 cells; Petroselinyl, 5 μM) | mean fluorescence intensity (EGFP mRNA) (ARPE19 cells; Petroselinyl, 10 μM) | percentage of gene editing, GFP fluorescence intensity decrease (% of reduction) ([1]; Dodecanal, 5 μM) [%] | percentage of gene editing, GFP fluorescence intensity decrease (% of reduction) ([1]; Dodecanal, 10 μM) [%] | percentage of gene editing, GFP fluorescence intensity decrease (% of reduction) ([1]; Dodecanal, 15 μM) [%] | percentage of gene editing, GFP fluorescence intensity decrease (% of reduction) ([1]; Myristoleyl, 15 μM) [%] | percentage of gene editing, GFP fluorescence intensity decrease (% of reduction) ([1]; Oleyl, 5 μM) [%] | percentage of gene editing, GFP fluorescence intensity decrease (% of reduction) ([1]; Palmitoleyl, 5 μM) [%] | percentage of gene editing, GFP fluorescence intensity decrease (% of reduction) ([1]; Palmitoleyl, 10 μM) [%] | percentage of gene editing, GFP fluorescence intensity decrease (% of reduction) ([1]; Palmitoleyl, 15 μM) [%] | percentage of gene editing, GFP fluorescence intensity decrease (% of reduction) ([1]; Petroselinyl, 10 μM) [%] | mean luminescent intensity (RLuc pDNA) (Hela cells; HeLa, Dodecanal, 5 μM) [RLU] | mean luminescent intensity (RLuc pDNA) (Hela cells; Hela, Palmitoleyl, 15 μM) [RLU] | mean luminescent intensity (RLuc pDNA) (Hela cells; Hela, Petroselinyl, 15 μM) [RLU] | also measured |
| --- | --- | --- | --- | --- | --- | --- | --- | --- | --- | --- | --- | --- | --- | --- | --- | --- | --- | --- | --- | --- | --- |
| Ac-RHLK*RLK*RRLK*RL-NH2 (Ac-RHLKRLKRRLKRL-NH2; not fully specified (residues 4, 7, 11); printed as Ac-RHLK*RLK*RRLK*RL-NH2; also: linker on K* not given here) [13(Arg-His)] | −195 | −333 | −332 | 5484 | 921 | 8590 | 472 | 216 | 4 | 5 | 16 | 29 | 5 | 30 | 22 | 9 | 6 |  |  |  | percentage of gene editing, GFP fluorescence intensity decrease (% of reduction) ([1]; Myristoleyl, 5 μM): −7% |
| Ac-RK*LRK*K*L-NH2 (Ac-RK(NHNH2)LRK(NHNH2)K(NHNH2)L-NH2; not fully specified; printed as Ac-RK*LRK*K*L-NH2; also: K*2,K*5,K*6: native or modified lysine (ε-amide to a linker)) [Peptide 7.3] | −622 | −417 | −422 |  |  |  | 5810 | 5129 |  |  | −11 | 4 | −7 | −12 | 17 | 35 | 34 | 5231 | 19128 | 12638 | mean fluorescence intensity (EGFP mRNA) (ARPE19 cells; Dodecanal, 2.5 μM): 9507; mean fluorescence intensity (EGFP mRNA) (ARPE19 cells; Dodecanal, 5 μM): 16576; mean fluorescence intensity (EGFP mRNA) (ARPE19 cells; Dodecanal, 10 μM): 6912; mean fluorescence intensity (EGFP mRNA) (ARPE19 cells; Myristoleyl, 2.5 μM): 44289; mean fluorescence intensity (EGFP mRNA) (ARPE19 cells; Myristoleyl, 5 μM): 10233; mean fluorescence intensity (EGFP mRNA) (ARPE19 cells; Myristoleyl, 10 μM): 2166; mean fluorescence intensity (EGFP mRNA) (ARPE19 cells; Oleyl, 2.5 μM): 20910; mean fluorescence intensity (EGFP mRNA) (ARPE19 cells; Oleyl, 5 μM): 4303; mean fluorescence intensity (EGFP mRNA) (ARPE19 cells; Palmitoleyl, 2.5 μM): 34422; mean fluorescence intensity (EGFP mRNA) (ARPE19 cells; Palmitoleyl, 5 μM): 7527; mean fluorescence intensity (EGFP mRNA) (ARPE19 cells; Palmitoleyl, 10 μM): 7536; mean fluorescence intensity (EGFP mRNA) (ARPE19 cells; Petroselinyl, 2.5 μM): 25416; percentage of gene editing, GFP fluorescence intensity decrease (% of reduction) ([1]; Oleyl, 10 μM): 4%; percentage of gene editing, GFP fluorescence intensity decrease (% of reduction) ([1]; Petroselinyl, 5 μM): 39% |
| Ac-RRLK*RLK*RRLK*RL-NH2 [Peptide 13.3] | 17325 | 2310 | −37 | 18783 | 105810 | 657 | 828 | 1310 | 25 | 10 | 20 | 10 | −1 | −18 |  | 18 |  | 18306 | 137093 | 90989 | mean luminescent intensity (RLuc pDNA) (Hela cells; HeLa, Petroselinyl, 10 μM): 4639 RLU; mean luminescent intensity (RLuc pDNA) (Hela cells; Hela, Dodecanal, 10 μM): 23656 RLU; mean luminescent intensity (RLuc pDNA) (Hela cells; Hela, Oleyl, 15 μM): 1922 RLU; mean fluorescence intensity (EGFP mRNA) (ARPE19 cells; Dodecanal, 5 μM): 1162; mean fluorescence intensity (EGFP mRNA) (ARPE19 cells; Dodecanal, 10 μM): 1636; mean fluorescence intensity (EGFP mRNA) (ARPE19 cells; Myristoleyl, 2.5 μM): 1787; mean fluorescence intensity (EGFP mRNA) (ARPE19 cells; Myristoleyl, 5 μM): 1055; mean fluorescence intensity (EGFP mRNA) (ARPE19 cells; Myristoleyl, 10 μM): 1763; mean fluorescence intensity (EGFP mRNA) (ARPE19 cells; Petroselinyl, 2.5 μM): 1485 |
